For one test, the target named is T1, human alpha2A receptors (Homo sapiens, UniProt P08913).
T1 construct: host or cells: Chinese hamster ovary (CHO) cells, cotransfected with pCEP-Gα16
T1 sequence (P08913 1-465): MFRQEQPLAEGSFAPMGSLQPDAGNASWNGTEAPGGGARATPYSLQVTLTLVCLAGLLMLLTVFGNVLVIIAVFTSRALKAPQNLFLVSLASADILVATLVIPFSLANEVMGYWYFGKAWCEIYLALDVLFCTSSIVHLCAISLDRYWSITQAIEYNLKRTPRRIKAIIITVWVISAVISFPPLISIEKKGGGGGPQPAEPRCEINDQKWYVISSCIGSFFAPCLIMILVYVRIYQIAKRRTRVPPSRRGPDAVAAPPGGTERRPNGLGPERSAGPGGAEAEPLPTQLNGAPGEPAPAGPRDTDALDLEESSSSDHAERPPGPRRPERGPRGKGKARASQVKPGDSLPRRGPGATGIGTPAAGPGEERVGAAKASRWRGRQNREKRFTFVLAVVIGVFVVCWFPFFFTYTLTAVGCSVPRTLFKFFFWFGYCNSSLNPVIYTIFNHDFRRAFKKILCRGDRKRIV
Briefly: Determination of alpha2A antagonistic activity in vitro (intracellular calcium, FLIPR Calcium 3). Format: cell-based. The following applies: CHO cells stably transfected with human alpha2A receptor and Gα16; stimulated with 100 nM adrenaline or 200 nM noradrenaline; 37° C. The method, then: (§1) Experiment 1: Determination of alpha2A and alpha2C Antagonistic Activity In Vitro
(§2) Chinese hamster ovary (CHO) cells stably transfected with human alpha2A or alpha2C receptors (University of Turku, Finland) were cotransfected with the expression vector pCEP-Gα16 (Molecular Devices, CA, USA) were used in this experiment. The cells were maintained at 37° C. in a 5% CO2/95% air atmosphere. The cells were cultured in HAM F-12 medium supplemented with 10% FCS, 25 mM HEPES, 100 IU/ml penicillin, 100 μg/ml streptomycin, 500 μg/ml geneticin and 240 μg/ml hygromycin B. The cells were subcultured twice weekly with 0.25% trypsin and 1 mM EDTA. The subculture ratio was 1:5-1:20. The growth medium was changed every 2 or 3 days. All cell culture reagents were from Gibco. The day before the experiment the cells were plated into black-walled, clear bottom 96-well plates at a density of 30,000-45,000 cells/well.
(§3) The growth medium was removed and the cells were incubated with the test compounds and the FLIPR Calcium 3 Assay reagent (Molecular Devices, CA, USA) for 1 h at 37° C. in dark. The test compounds (concentrations in cells 100 pM-10 μM) were dissolved in Probenecid-Ringer consisting of 150 mM NaCl, 3 mM KCl, 1.2 mM MgCl2, 1 mM CaCl2, 5 mM glucose, 20 mM HEPES and 2.5 mM probenecid (pH 7.4 adjusted with 1.0 M NaOH). The osmolarity was adjusted to 322 milliosmoles with Osmostat® OM-6020 osmometer (DIC Kyoto Daiichi Kagagu Co. Ltd, Japan). […] All experiments were performed at 37° C. The test compounds dissolved in Probenecid-Ringer were applied by FLEX station at 17 s time point. […] In order to determine antagonism, the cells were stimulated either with 100 nM adrenaline or 200 nM noradrenaline and the test compounds were added to the cells at least 5 min before the experiment. Typically, there were four replicates at each concentration and seven different dose levels. For example, if the number of plates from which results were obtained was three, 84 (4*7*3) wells were thus measured to construct dose-response relationship. The samples were excited at 485 nm and emission was detected at 525 nm with a 515 nm cut-off filter. Reading time was 60 s per well and the photomultiplier sensitivity value was set to 15. The minimum fluorescence value subtracted from the maximum value for each well was used in the calculations. SOFTmax PRO version 3.2 software was used for analyzing the results. Fitting of the antagonist dose-response results was performed with the free Hill equation and the IC50 values were fitted with Michaelis-Menten equation in Sigma Plot 8.0.
(Calcium flux is commonly read through the fluorescence of an indicator in the cells.)

The next test has as its target T2, human alpha2C receptors (Homo sapiens, UniProt P18825).
T2 construct: host or cells: Chinese hamster ovary (CHO) cells, cotransfected with pCEP-Gα16
T2 sequence (P18825 1-462): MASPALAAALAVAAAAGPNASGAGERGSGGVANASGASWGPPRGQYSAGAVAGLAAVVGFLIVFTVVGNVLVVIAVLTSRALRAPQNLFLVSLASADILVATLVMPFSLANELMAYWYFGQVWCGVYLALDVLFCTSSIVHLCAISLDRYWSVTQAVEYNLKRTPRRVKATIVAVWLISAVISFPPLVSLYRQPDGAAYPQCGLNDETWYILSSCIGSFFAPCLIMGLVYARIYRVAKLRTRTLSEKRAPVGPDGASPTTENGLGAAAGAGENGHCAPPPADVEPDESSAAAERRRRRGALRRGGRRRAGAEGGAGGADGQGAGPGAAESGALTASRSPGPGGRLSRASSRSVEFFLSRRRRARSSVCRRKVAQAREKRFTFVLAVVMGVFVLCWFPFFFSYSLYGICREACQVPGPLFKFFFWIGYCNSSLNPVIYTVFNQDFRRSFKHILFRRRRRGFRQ
Briefly: Determination of alpha2C antagonistic activity in vitro (intracellular calcium, FLIPR Calcium 3). Format: cell-based. As to the method:
as §1, §2, §3

The mark [1] stands for this setting: CHO cells stably transfected with human alpha2C receptor and Gα16, stimulated with 100 nM adrenaline or 200 nM noradrenaline, 37° C., read-out: IC50/nM Alpha2C.

Each structure is given as a SMILES string. Like-named read-outs stand apart in the source and are kept apart here.

As for `Cc1ccccc1N1CCN(C[C@H]2COc3ccccc3O2)CC1` [Example 31, (S)-1-((2,3-Dihydrobenzo[b][1,4]dioxin-2-yl)methyl)-4-o-tolylpiperazine], the IC50 on human alpha2A receptors came to 16900 nM; at human alpha2C receptors it was 17.6 nM.
On to `OCc1c(F)cccc1N1CCN(CC2COc3ccccc3O2)CC1` (stereo not drawn) [Example 23, (2-(4-((2,3-Dihydrobenzo[b][1,4]dioxin-2-yl)methyl)piperazin-1-yl)-6-fluorophenyl)methanol], for which the figures for the IC50 at human alpha2A receptors and at human alpha2C receptors (setting [1]) were 10700 nM and 30.6 nM, respectively.
Taken in the same sequence, the figures for `COCc1ccccc1N1CCN(C[C@@H]2COc3ccccc3O2)CC1` [Example 18, (R)-1-((2,3-Dihydrobenzo[b][1,4]dioxin-2-yl)methyl)-4-(2-(methoxymethyl)phenyl)piperazine] were 41100 nM and 134 nM.
Taken in the same sequence, the figures for `COCc1ccccc1N1CCN(C[C@H]2COc3ccccc3O2)CC1` [Example 17, (S)-1-((2,3-Dihydrobenzo[b][1,4]dioxin-2-yl)methy)-4-(2-(methoxymethyl)phenyl)piperazine] were 2180 nM and 8.2 nM.
The like results for `c1coc(-c2ccccc2N2CCN(C[C@H]3COc4ccccc4O3)CC2)c1` [Example 29, (S)-1-((2,3-Dihydrobenzo[b][1,4]dioxin-2-yl)methyl)-4-(2-(furan-2-yl)phenyl)piperazine] were, in that order, 12700 nM and 18 nM.
In the case of `COC(=O)c1ccccc1N1CCCN(CC2COc3ccccc3O2)CC1` (stereo not drawn) [Example 36, Methyl 2-(4-((2,3-dihydrobenzo[b][1,4]dioxin-2-yl)methyl)-1,4-diazepan-1-yl)benzoate], the IC50 on human alpha2A receptors was 3900 nM; on human alpha2C receptors (setting [1]) it was 13.7 nM.

Values taken from patent publication US20110262352A1, “ARYL PIPERAZINE AND THEIR USE AS ALPHA2C ANTAGONISTS” (priority 2008, published 2011).
